Test results taken from patent US12187742B2 (XRAD Therapeutics, Inc., priority 2018, dated 2025).

Legend:
DNA-PK = DNA-PK (Homo sapiens (Human), UniProt P78527); assay: DNA-PK Enzyme-Linked Immunosorbent Assay (phosphorylation of GST-p53 (1-101) peptide); format: biochemical; conditions: ELISA, ATP 20 μM
In short: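 Inhibition measured by 450 nm absorbance after HRP/TMB detection of phospho-Ser15 on immobilized GST-p53 (1-101). The kinase reaction used 0.1 μg/mL DNA-PK and 20 μM ATP, 1 h at 25 °C. Ten 3-fold compound dilutions, top final concentration 100 nM.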

ATM = ATM (Homo sapiens (Human), UniProt Q13315); assay: ATM in Cell Western Assay (pKAP1 in etoposide-treated MCF-7 cells); format: cell-based; conditions: MCF-7 cells, etoposide 100 μM, 1 hr, pKAP1 readout
In short: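 After paraformaldehyde fixation and Triton X-100 permeabilization, immunostained plates were read by infrared scanning (ODYSSEY CLx). Compound was given as 10 doses, 3-fold dilutions from a 1 μM final top concentration.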

Sequence of ATM (Q13315 whole entry): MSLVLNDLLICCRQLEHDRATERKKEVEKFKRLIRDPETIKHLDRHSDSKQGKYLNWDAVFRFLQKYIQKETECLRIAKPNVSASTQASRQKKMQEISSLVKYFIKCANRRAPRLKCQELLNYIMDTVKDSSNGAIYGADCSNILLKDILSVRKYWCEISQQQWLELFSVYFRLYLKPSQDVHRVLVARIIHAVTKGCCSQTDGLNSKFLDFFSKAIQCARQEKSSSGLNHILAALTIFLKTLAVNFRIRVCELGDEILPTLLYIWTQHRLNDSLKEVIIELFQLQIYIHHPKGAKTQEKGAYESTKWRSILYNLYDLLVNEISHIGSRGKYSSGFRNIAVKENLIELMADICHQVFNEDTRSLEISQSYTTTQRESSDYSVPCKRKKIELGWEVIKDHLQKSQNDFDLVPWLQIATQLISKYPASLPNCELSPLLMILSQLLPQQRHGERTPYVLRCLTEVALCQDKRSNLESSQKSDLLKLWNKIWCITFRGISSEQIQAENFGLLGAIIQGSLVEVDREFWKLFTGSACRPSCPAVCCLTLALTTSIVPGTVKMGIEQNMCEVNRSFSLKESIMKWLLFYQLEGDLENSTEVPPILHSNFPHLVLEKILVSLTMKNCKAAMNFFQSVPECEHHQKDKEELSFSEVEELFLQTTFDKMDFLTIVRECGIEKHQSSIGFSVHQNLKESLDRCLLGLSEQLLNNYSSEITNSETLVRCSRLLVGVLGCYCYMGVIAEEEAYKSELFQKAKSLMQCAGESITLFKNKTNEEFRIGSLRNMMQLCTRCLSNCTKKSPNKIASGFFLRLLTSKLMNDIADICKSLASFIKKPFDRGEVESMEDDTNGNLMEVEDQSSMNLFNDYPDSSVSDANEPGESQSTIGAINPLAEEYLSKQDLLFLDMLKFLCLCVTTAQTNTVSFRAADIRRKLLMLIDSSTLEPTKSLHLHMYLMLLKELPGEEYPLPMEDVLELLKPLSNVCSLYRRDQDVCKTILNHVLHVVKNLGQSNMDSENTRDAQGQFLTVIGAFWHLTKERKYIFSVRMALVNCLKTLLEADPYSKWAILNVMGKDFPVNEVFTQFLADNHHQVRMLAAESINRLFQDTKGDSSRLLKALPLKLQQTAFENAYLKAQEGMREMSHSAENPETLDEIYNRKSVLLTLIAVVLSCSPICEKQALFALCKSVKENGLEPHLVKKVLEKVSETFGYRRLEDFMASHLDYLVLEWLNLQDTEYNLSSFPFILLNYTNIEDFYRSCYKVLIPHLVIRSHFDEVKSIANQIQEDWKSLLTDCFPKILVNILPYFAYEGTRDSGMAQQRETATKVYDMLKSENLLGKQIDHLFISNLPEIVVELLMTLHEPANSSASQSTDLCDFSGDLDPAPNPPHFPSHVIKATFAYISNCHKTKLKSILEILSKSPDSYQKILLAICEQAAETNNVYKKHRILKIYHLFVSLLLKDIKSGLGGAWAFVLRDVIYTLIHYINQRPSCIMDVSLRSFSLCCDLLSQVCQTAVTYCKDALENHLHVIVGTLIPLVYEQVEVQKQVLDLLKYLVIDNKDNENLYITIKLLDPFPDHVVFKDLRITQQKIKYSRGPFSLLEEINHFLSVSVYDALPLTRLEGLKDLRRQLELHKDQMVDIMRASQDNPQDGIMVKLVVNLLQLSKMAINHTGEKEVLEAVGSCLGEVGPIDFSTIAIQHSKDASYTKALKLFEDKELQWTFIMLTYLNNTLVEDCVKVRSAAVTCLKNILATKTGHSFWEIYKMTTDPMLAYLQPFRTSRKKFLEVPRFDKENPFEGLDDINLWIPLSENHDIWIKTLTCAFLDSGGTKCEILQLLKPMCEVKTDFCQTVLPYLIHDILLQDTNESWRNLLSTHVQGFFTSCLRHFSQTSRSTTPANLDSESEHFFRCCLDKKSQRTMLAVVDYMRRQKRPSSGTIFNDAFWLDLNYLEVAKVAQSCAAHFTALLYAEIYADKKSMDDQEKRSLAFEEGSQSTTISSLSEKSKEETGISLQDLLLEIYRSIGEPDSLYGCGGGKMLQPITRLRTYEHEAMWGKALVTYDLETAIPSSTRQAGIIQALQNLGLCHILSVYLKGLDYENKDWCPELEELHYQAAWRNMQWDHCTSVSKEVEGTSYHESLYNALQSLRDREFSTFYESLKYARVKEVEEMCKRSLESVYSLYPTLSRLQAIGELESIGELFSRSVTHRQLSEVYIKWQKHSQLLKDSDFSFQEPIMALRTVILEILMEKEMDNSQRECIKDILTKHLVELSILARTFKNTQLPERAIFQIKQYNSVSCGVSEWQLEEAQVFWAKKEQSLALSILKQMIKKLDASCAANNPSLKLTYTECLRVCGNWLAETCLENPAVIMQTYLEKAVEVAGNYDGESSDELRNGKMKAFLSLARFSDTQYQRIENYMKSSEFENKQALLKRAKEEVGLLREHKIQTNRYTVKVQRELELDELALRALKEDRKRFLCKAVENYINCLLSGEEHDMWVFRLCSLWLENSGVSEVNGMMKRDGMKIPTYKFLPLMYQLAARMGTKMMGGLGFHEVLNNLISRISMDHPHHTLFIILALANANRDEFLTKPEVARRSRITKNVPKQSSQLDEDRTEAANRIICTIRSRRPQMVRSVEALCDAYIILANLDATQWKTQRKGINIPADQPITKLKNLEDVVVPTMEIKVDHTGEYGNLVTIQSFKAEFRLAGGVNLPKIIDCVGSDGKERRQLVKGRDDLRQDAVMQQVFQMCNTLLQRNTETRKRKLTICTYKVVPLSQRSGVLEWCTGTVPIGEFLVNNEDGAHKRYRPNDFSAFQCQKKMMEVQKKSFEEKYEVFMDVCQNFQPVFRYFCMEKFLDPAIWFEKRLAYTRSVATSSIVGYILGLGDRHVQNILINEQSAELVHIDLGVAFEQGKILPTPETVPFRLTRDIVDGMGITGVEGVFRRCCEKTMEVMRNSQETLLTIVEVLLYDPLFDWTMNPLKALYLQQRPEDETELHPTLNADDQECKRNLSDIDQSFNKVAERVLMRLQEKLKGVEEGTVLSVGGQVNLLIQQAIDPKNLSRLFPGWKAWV

Row | Compound | IC50 (DNA-PK) | IC50 (ATM)
1 | CN1C(=O)C2(CC2)c2c1cnc1ccc(-c3cnc(OCCCN4CCCCC4)c(NS(=O)(=O)c4ccccc4)c3)cc21 [Example 67, N-(5-(3′-Methyl-2′-oxo-2′,3′-dihydrospiro[cyclopropane-1,1′-pyrrolo[2,3-c]quinolin]-8′-yl)-2-(3-(piperidin-1-yl)propoxy)pyridin-3-yl)benzenesulfonamide] | < 0.5 nM | 0.5 to 1 nM
2 | CN1C(=O)C2(CC2)c2c1cnc1ccc(-c3cnc(OCCCN4CCCCC4)c(NS(=O)(=O)C4CC4)c3)cc21 [Example 68, N-(5-(3′-Methyl-2′-oxo-2′,3′-dibydrospiro[cyclopropane-1,1′-pyrrolo[2,3-c]quinolin]-8′-yl)-2-(3-(piperidin-1-yl)propoxy)pyridin-3-yl)cyclopropanesulfonamide] | < 0.5 nM | 1 to 100 nM
3 | CN(C)CCCOc1ncc(-c2ccc3ncc4c(c3c2)C2(CC2)C(=O)N4C)cc1NS(=O)(=O)C1CCC1 [Example 69, N-(2-(3-(Dimethylamino)propoxy)-5-(3′-methyl-2′-oxo-2′,3′-dihydrospiro[cyclopropane-1,1′-pyrrolo[2,3-c]quinolin]-8′-yl)pyridin-3-yl)cyclobutanesulfonamide] | 1 to 100 nM | 1 to 100 nM
4 | CN(C)CCCNc1ncc(-c2ccc3ncc4c(c3c2)C2(CC2)C(=O)N4C)cn1 [Example 70, 8′-(2-((3-(Dimethylamino)propyl)amino)pyrimidin-5-yl)-3′-methylspiro[cyclopropane-1,1′-pyrrolo[2,3-c]quinolin]-2′(3′-H)-one] | 1 to 100 nM | 1 to 100 nM
5 | CN(C)CCCOc1ncc(-c2ccc3ncc4c(c3c2)C2(CC2)C(=O)N4C)cn1 [Example 71, 8′-(2-(3-(Dimethylamino)propoxy)pyrimidin-5-yl)-3′-methylspiro [cyclopropane-1,1′-pyrrolo[2,3-c]quinolin]-2′(3′-H)-one] | > 100 nM | 1 to 100 nM
6 | CN(C)CCCOc1ncc(-c2ccc3ncc4c(c3c2)CC2(CCC2)C(=O)N4C)cc1NS(=O)(=O)c1ccccc1 [Example 73, N-(2-(3-(Dimethylamino)propoxy)-5-(4-methyl-3-oxo-3,4-dihydro-1H-spiro[benzo[f][1,7]naphthyridine-2,1′-cyclobutan]-9-yl)pyridin-3-yl)benzenesulfonamide] | 1 to 100 nM | 1 to 100 nM
7 | CNCCCCOc1ncc(-c2ccc3ncc4c(c3c2)C2(CC2)C(=O)N4C)cc1NS(=O)(=O)c1ccccc1 [Example 75, N-(5-(3-Methyl-2′-oxo-2′,3′-dihydrospiro [cyclopropane-1,1′-pyrrolo[2,3-c]quinolin]-8′-yl)-2-(4-(methylamino)butoxy)pyridin-3-yl) benzenesulfonamide] | 1 to 100 nM | 1 to 100 nM
8 | CN(C)CCCOc1ncc(-c2ccc3ncc4c(c3c2)C2(CC2)C(=O)N4C)cc1NS(=O)(=O)C1COC1 [Example 76] | 0.5 to 1 nM | 1 to 100 nM
9 | CCCS(=O)(=O)Nc1cc(-c2ccc3ncc4c(c3c2)C2(CC2)C(=O)N4C)cnc1OCCCN(C)C [Example 77, N-(2-(3-(Dimethylamino)propoxy)-5-(3′-methyl-2′-oxo-2′,3′-dihydrospiro [cyclopropane-1,1′-pyrrolo [2,3-c]quinolin]-8′-yl)pyridin-3-yl)propane-1-sulfonamide] | 1 to 100 nM | 1 to 100 nM
10 | CN1C(=O)C2(CC2)c2c1cnc1ccc(-c3cnc(OCCC4CCCN4C)c(NS(=O)(=O)c4ccccc4)c3)cc21 (stereo not shown) [Example 78, N-(5-(3′-Methyl-2′-oxo-2′,3′-dihydrospiro[cyclopropane-1,1′-pyrrolo[2,3-c]quinolin]-8′-yl)-2-(2-(1-methylpyrrolidin-2-yl)ethoxy)pyridin-3-yl)benzenesulfonamide] | 1 to 100 nM | 1 to 100 nM
11 | CN1C(=O)C2(CC2)c2c1cnc1ccc(-c3cnc(OCCC4CCCN4C)c(NS(=O)(=O)C4CC4)c3)cc21 (stereo not shown) [Example 79, N-(5-(3-Methyl-2′-oxo-2′,3′-dihydrospiro[cyclopropane-1,1′-pyrrolo[2,3-c]quinolin]-8′-yl)-2-(2-(1-methylpyrrolidin-2-yl)ethoxy)pyridin-3-yl)cyclopropanesulfonamide] | 1 to 100 nM | 1 to 100 nM
